Assay results from patent US12552760B2, “Compounds for increasing the nicotinamide adenine dinucleotide in a subject and methods of use thereof” (The Board of Trustees of the University of Illinois, priority 2022, dated 2026).
Read-outs that look alike come from different tables or passages of the source.

Legend:
[1] = tested on: cultured primary neurons; details: 2-4 mM, 6 h; Liu, D. et al. 2013; cited from earlier work
[2] = tested on: Sprague-Dawley rats; details: 500 mg/kg (i.p.) 2 h after MCAO for 22 hrs; Koh, P. 2013; cited from earlier work
[3] = tested on: Wistar rats; details: 100, 300, 500 mg/kg (i.p.) 8 days; Sidhu, A. et al. 2018; cited from earlier work
[4] = tested on: C57BL/6 mice; details: 125, 250, 500 mg/kg (i.p.) 1 day (acute), 5 days (sub-acute); Anderson, D. W. et al. 2008; cited from earlier work
[5] = tested on: HT22; details: 0.1 mM & 1.0 mM, 24 h; Koh, P. 2013; cited from earlier work
[6] = tested on: 3xTgAD mice; details: 40 mg/kg/d (p.o.) 8 months; Liu, D. et al. 2013; cited from earlier work
[7] = tested on: Brown Norway rats and C57BL/6 mice; details: 200-400 mg/kg/d (p.o., rats), 500 mg/kg/d (p.o., mice), various treatment times; Tribble J. R. et al. 2021; cited from earlier work
[8] = tested on: APPSwe/PSEN1dE9 N2A cells; details: 10 mM, 72 h; Long, A. N. et al. 2015; cited from earlier work
[9] = tested on: APPSwe/PSEN1dE9 mice; details: 100 mg/kg (s.c.) every other day for 28 days; Yao Z. et al. 2017; cited from earlier work
[10] = tested on: Wistar rats; details: 500 mg/kg/d (i.p.) 10 days; hippocampal slices treated with 10 μM oAβ1-42 for 6 h +/− 1 mM NMN; Wang, X. et al. 2016; cited from earlier work
[11] = tested on: APPSwe/PSEN1dE9 mice; details: 100 mg/kg every other day for 28 days; Long, A. N. et al. 2015; cited from earlier work
[12] = tested on: hSOD1^G93A mouse derived astrocytes and motor neurons; details: NR or NMN, 5 mM, 24-72 h; Harlan, B. A. et al. 2019; cited from earlier work
[13] = tested on: CL2355 worms; details: 5 mM, 2 nematode generations; Fang, E. F. et al. 2019; cited from earlier work
[14] = tested on: CD1 mice; details: 300 mg/kg 30 minutes post ICH from tail veil for 24 h or 7 days with (300 mg/kg/d); Wei, C. C. et al. 2017; cited from earlier work
[15] = tested on: Sprague-Dawley rats; details: 100 mg/kg (i.p.) every other day for 3 months; Chandrasekaran, K. et al. 2020; cited from earlier work
[16] = biological target: T1, NAMPT (Homo sapiens, UniProt P43490); assay: NAMPT coupled enzyme activity assay (HTS coupled three-enzyme assay); type: biochemical; details: dose-response (FIG. 1B)
T1 construct: His6 (C); made in house
Source text: NAMPT coupled enzyme activity assay. The NAMPT enzyme assay is based on conditions from Burgos and Schramm and adapted to include a cycling reaction to quantitate NAD^+ production colorimetrically^1. The assay follows the NAMPT-catalyzed production of NMN from substrates NAM and PRPP by coupling NMN formation to the NMNAT reaction, which produces NAD^+ from NMN and ATP. The NAD^+ is then cycled by alcohol dehydrogenase (ADH) and diaphorase to continuously produce WST-1 formazan, which can be detected at 450 nm. Assays are performed at 25° C. in clear 384-well plates, with a final assay volume of 30 μL, and contain the following: 50 mM HEPES, pH 7.5, 5 mM MgCl2, 50 mM NaCl, 0.01% Triton-X 100, 2.5 mM ATP, 40 μM PRPP, 1-500 μM NAM, 1.5 μL WST-1 (Roche Cell Proliferation Reagent), 1 U/mL ADH, 0.083 U/mL diaphorase, 1.5% ethanol, 1% DMSO, 30 nM NAMPT, and 7.4 nM purified human NMNAT1. N-terminal His6-NMNAT1 and C-terminal His6-NAMPT were overexpressed and purified by metal chelate affinity chromatography. Following assay assembly, well signals were measured continuously at 450 nm on a Tecan Infinite M200 plate reader for 1 h with intermittent shaking. Slopes of the linear portions of the reaction progress curves were recorded and corrected for background by subtracting the average slope of control wells containing NAMPT inhibitor FK866.
A high-throughput screen (HTS) of 22,000 compounds was performed to identify those that augment NAMPT enzymatic activity^38. Screening used a coupled three-enzyme assay to detect conversion of NAM to NAD^+, as previously described by our group^37. […] We also established assays in which to assess the ability of our compounds to mitigate neuronal oxidative stress.

[17] = tested on: HT-22 mouse hippocampal cell line; assay: TNFα-induced ROS in HT-22 cells (MitoSOX); type: cell-based; details: screened against 1 μg/mL TNFα (FIG. 2A)
Description: Cell Culture and Drug Treatments. HT22 mouse hippocampal neuronal cells (a gift from the Salk Institute) were grown in Dulbecco's modified Eagle's medium (DMEM) containing 10% FBS and 1× Antibiotic-Antimycotic (ABAM). Cells were maintained in a humidified 5% CO2 atmosphere incubator at 37° C., and were passaged when 60-80% confluent (1-2 days) by removing media, rinsing with phosphate buffered saline (PBS), and enzymatically detaching with trypsin solution. New culture dishes were seeded with ¼ to ½ the cells from the previous dish.
All assays were performed using cells with passage number 12-50. The inner 60 wells of black-walled (Corning®3603/3604) 96-well plates were treated with poly D-lysine (30 μL/well) making sure to cover the entire well surface for 15-30 seconds and then washed thoroughly with sterile water (3×−200 μL/well). TNFα stock solutions (10 μg/mL, PBS (0.1% BSA)) were made, aliquoted, and stored at −80° C. Glutamate stock solutions were made fresh immediately before assay. All compound stock solutions (10 mM, DMSO) were made and stored at −20° C.
Cells were plated at a seeding density of 3,000-5,000 cells/well and allowed to incubate overnight. The next day (18-24 hours later) cells were pretreated with N-PAMs, carefully ensuring equivalent vehicle (DMSO/PBS) composition in each well. After 18-24 hours, stressors (glutamate or TNFα) were treated. Live cell count, ROS level, and total cell count were then assessed after another 18-24 hours.
ROS Detection. ROS levels were quantified using MitoSOX Red Mitochondrial Superoxide Indicator (Invitrogen). At treatment endpoint, the cell culture media was removed and replaced with phosphate buffered saline (PBS) containing 1 μM calcein-AM, 5 μM MitoSOX, and 10 μg/mL Hoechst dyes. Cells were incubated for 30-45 minutes and then dye-containing PBS was dumped and replaced with 100 μL/well fresh PBS. The plate was immediately analyzed in the Celigo Imaging Cytometer using the Live-Dead-Total protocol, where MitoSOX was used in place of propidium iodide. The cell counts and fluorescence intensities for living (calcein), MitoSOX-stained, and total (Hoechst) were acquired. MitoSOX average mean fluorescence intensity (“dead” average mean intensity) was used to quantify mitochondrial ROS. All readouts used were transformed into fold-change over vehicle treatment for visualization.
We set out to design assays representing the connection between OS and the multifaceted pathophysiology of aging and ND. We assessed multiple treatments in several cell lines to model OS induced by diverse factors such as neuroinflammatory signaling, neurotransmitter signaling, and direct oxidant species. Assay development highlighted the neuronal HT-22 mouse hippocampal cell line as most robust for these purpose s, and inflammatory cytokine TNFα as being a reliable and disease-relevant method for inducing ROS generation.

[18] = biological target: T1, NAMPT; assay: NP-A3-B2:NAMPT co-crystal structure (X-ray diffraction); details: NP-A3-B2, NAM and NAMPT; 1.3-1.5 Å resolution
Description: X-ray diffraction crystallography. Crystals of NAMPT complexed with NAM and N-PAM were grown by hanging drop vapor diffusion at 16° C. Prior to crystallization, 11 mg/mL NAMPT protein was incubated with 10 mM NAM and 1 mM compound for 30 min on ice. Crystals of the complex were grown by mixing 1-2 μL of NAMPT complex with 2 μL of reservoir solution containing 0.1 M Tris-HCl, pH 8, 0.1 M KCl, and 24-28% PEG 2000 MME or 0.1 M Tris-HCl, pH 8.5, 0.2 M NaCl, 20% glycerol and 13-18% PEG 3350. Crystals grew overnight from the PEG 2000 MME conditions and were used to streak seed drops of NAMPT complex equilibrating against the PEG 3350 conditions.
Data collection and structure refinement. The glycerol present in the crystallization solution was sufficient to cryo-protect crystals, which were flash-cooled in liquid nitrogen. Data were collected on a MAR300 detector at 0.979 Å at the Life Sciences Collaborative Access Team beamline 21-ID-F at the Advanced Photon Source, Argonne National Laboratory. Data indexing, integration, and scaling were performed using XDS, and phases were determined by molecular replacement using Molrep and a NAMPT-NAM co-crystal structure (PDB entry: 2E5D) as search model. Rigid body refinement followed by iterative rounds of restrained refinement and model building were performed with Phenix and Coot.

[19] = tested on: THP-1 human monocytes; assay: Measurement of cellular NAD^+ levels in THP-1 cell cultures (NAD/NADH-Glo); type: cell-based; details: dose response study, 30 μM (FIG. 1A)
Description: Measurement of cellular NAD^+ levels in THP-1 cell cultures. Using FK-866 and NMN as negative and positive controls, respectively, we explored a number of cell lines to select a highly reproducible model system with good dynamic range. We optimized a commercial NAD-glo assay in the THP-1 human leukemic monocyte cell line in 96-well plates, measuring NAD^+ after incubation with test compounds for 24 hours. […] All cells were grown at 37° C., under 5% CO2 in a humidified incubator. Low passage THP-1 cells (37,500 cells/well) were seeded in 96-well plates and incubated at 37° C. and 5% CO2 for 1½ h prior to a 24 h treatment. All compounds were dissolved in DMSO, and final DMSO concentrations never exceeded 1%. The NAD^+ levels in the cells are measured using the NAD^+/NADH-Glo™ assay (Promega). The assays were performed in triplicate for each concentration and the IC50 values were determined from non-linear regression analysis of the dose-response curve generated in GraphPad Prism 9.

T1 sequence (P43490 whole entry): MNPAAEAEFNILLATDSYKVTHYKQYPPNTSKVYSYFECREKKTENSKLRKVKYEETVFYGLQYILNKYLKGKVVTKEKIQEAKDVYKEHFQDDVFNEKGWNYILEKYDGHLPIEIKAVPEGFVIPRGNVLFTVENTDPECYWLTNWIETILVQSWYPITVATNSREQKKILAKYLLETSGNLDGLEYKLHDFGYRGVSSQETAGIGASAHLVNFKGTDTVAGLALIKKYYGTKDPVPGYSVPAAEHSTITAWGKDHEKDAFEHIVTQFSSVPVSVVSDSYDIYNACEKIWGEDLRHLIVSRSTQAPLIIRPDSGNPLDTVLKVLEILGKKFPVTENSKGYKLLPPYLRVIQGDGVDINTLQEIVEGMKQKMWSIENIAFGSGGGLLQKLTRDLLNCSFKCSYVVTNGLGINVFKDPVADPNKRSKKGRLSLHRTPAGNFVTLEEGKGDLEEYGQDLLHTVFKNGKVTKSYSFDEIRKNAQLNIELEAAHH

In the case of `NC(=O)c1cccnc1` [NAM, nicotinamide], the Neuroprotection [1] is listed as “Neuroprotection”, the Decreased infarct volume [2] is listed as “volume by 60%” and the hippocalcin depletion [2] is listed as “Prevented”. The Neuroprotection [3] was “Neuroprotection”, the motor function [3] was “Improved motor” and the oxidative stress [3] was “Prevented”. The “dopamine concentration in both paradigms” value [4] was “Recovered”, the Neuroprotection [5] was “Neuroprotection” and the “hippocalcin (crucial neuronal protein) depletion” value [5] was “Prevented”. The “Aβ and p-Tau” value [6] was “Decreased Aβ”, the cognitive decline [6] was “Ameliorated” and the Retinal ganglion neuroprotection [7] was “neuroprotection”. For the same molecule, the metabolic disruption [7] was “Prevented” and the mitochondrial function [7] was “Improved”.

For `NC(=O)c1ccc[n+]([C@@H]2O[C@H](COP(=O)([O-])OP(=O)(O)OC[C@H]3O[C@@H](n4cnc5c(N)ncnc54)[C@H](O)[C@@H]3O)[C@@H](O)[C@H]2O)c1` [NAD^+, Nicotinamide adenine dinucleotide], the mitochondrial deficits [8] is listed as “Reversed”.

For `NC(=O)c1ccc[n+]([C@@H]2O[C@H](COP(=O)([O-])O)[C@@H](O)[C@H]2O)c1` [NMN, nicotinamide mononucleotide], the APP processing [9] is given as “Biased APP to α”, the Aβ aggregation [9] is given as “· Decreased Aβ” and the cognitive impairments [9] is given as “Prevented”. For the same molecule, the neuroinflammation [9] was “Decreased”, the synaptic loss [9] was “Prevented” and the LTP [10] was “Improved LTP”. For the same molecule, the “NAD^+ and ATP” value [10] was “· Restored NAD^+”, the Neuroprotection [10] was “Neuroprotection” and the oxidative stress [10] was “Attenuated”. The “spatial learning and memory” value [10] was “Improved spatial”, the APP levels [11] was “Decreased APP” and the mitochondrial deficits [11] was “Reversed”. For the same molecule, the “Nrf2 mediated Antioxidant Response Element activation” value [12] was “Increased Nrf2”, the “cognitive decline and memory impairment” value [13] was “Ameliorated” and the Neuroprotective [14] was “Neuroprotective”. The acute brain injury [14] was “Protected against”, the “motor function recovery over 7 days” value [14] was “Enhanced motor” and the “oxidative stress and neuroinflammation” value [14] was “Reduced”. The Neuroprotective [15] was “Neuroprotective”, the “brain NAD^+, metabolites, and neurotransmitters” value [15] was “Normalized brain” and the “hippocampal CA1 volume” value [15] was “Preserved”. For the same molecule, the memory [15] was “Improved memory” and the mitochondrial function [15] was “Improved”.

In the case of `COc1ccc(CN(CCC2(C(C)C)CCOC(C)(C)C2)C(=O)c2ccco2)cc1` (centres unmarked) [NP-A3-B2, N-[(4-Methoxyphenyl)methyl]-N-[2-[tetrahydro-2,2-dimethyl-4-(1-methylethyl)-2H-pyran-4-yl]ethyl]-2-furancarboxamide], the EC50 ([16]; NAMPT activation) is reported as 4.05 µM, the Amax [16] is reported as 1.85 fold and the “effect on ROS levels across tested concentrations” value [17] is reported as “little effect until 40 μM”. For the same molecule, the “binding mode in co-crystal structure” value [18] was “allosteric binding of the hit to the NAMPT rear channel”, the “NAD^+ fold over control” value [19] was 1.18 fold and the “increase in NAD^+ over control” value [19] was 18%.
